Experimental data taken from publication PMC9289467, “A Novel Multifunctional 5,6-Dimethoxy-Indanone-Chalcone-Carbamate Hybrids Alleviates Cognitive Decline in Alzheimer’s Disease by Dual Inhibition of Acetylcholinesterase and Inflammation” (Frontiers in Aging Neuroscience, 2022).

Columns and labels:
[1] = Single-dose pharmacokinetics in mice (plasma and brain, UPLC-TSQ/MS); format: in vivo, C57BL/6J mice; conditions: mouse
Procedure: To determine the pharmacokinetics of AP5 in mice, the mice were administered a single dose of AP5 by i.v. and oral gavage dose routes. The plasma and brain homogenate were detected by UPLC-TSQ/MS(Thermo Fisher Scientific, Waltham, MA, United States). The plasma drug concentrations were analyzed for PK data by DAS (Drug and Statistics) Version 3.0 (BioGuider Corporation, Shanghai, China). Bioavailability (F%) after oral administration was calculated as AUCINF p.o./AUCINF i.v./4 × 100. AUCINF p.o. and AUCINF i.v. represent the area under the plasma concentration–time curve extrapolated to infinity after single-dose per os and intravenous injection, respectively. The extent of brain penetration was measured by the brain-to-plasma distribution ratio (B/P). The B/P value was calculated as: AUCINFbrain/AUCINF plasma × 100. AUCINF brain represents the area under the brain concentration–time curve extrapolated to infinity after a single-dose per os.
We next determine the pharmacokinetic profile of AP5 in male C57BL/6J mice given a single intravenous (i.v.) dose of 10 mg/kg or single per os (p.o.) dose of 40 mg/kg, respectively. […] Importantly, we determined AP5 in the brain homogenate with the highest concentration of 95.3 ng/mL at 2 h (Figures 1D,E). […]
Supplementary materials and methods
Prepations ofspecimen for pharmacokinetics analysis
24 h afterdosing. Brains were collected at0, 0.25, 0.5,2, 4,8 and 24 h after administration.Plasma extractions were performed by adding 90 μL methanol and 2 μL internalstandard letrozole (500 ng/mL) to a30 µL plasma sample. Brain samples were homogenized in 1 mL PBS per gram brain tissueby handheld homogenizer.
Then 90 μL methanol and 2 μL letrozolewere added to 30 µl brainhomogenates. The samples were vortexed for 3 min and centrifuged 15 min at25,000 g.The plasma and brainhomogenate were analyzed by UPLC-TSQ/MS (Thermo Fisher Scientific, Waltham, MA, USA). Samples were compared to a calibrationcurve prepared ina similarmanner by spiking blank controlplasma or homogenate with standards prepared inmethanol and then extractedas above. […]

APPfl, CTFβ, BACE, PS1 = experiment: Western blot of APP processing, APP/PS1 mice; format: in vivo; conditions: cortex and hippocampus, AP5-treated vs APP/PS1 mice
Procedure: (§1) APP/PS1 mice of ages 6 months were randomly divided into vehicle (APP/PS1, n = 10) and treatment groups (AP5, n = 10), which were intragastrically administered with AP5 (40 mg/kg) once daily for consecutive 5 months. AP5 was dissolved in distilled water containing 1% sodium carboxymethyl cellulose.
Frozen hippocampus and cortex were homogenized in pre-cooling RIPA buffer (P0013B, Beyotime) supplemented with 1 mM phenylmethanesulfonyl fluoride (PMSF) and cocktail of protease and phosphatase inhibitors. […] The membranes were incubated with 5% fat-free milk blocking solution for 1 h at room temperature and then probed with primary antibodies overnight at 4°C. […] Densitometric analysis was performed using Quantity One software (Bio-Rad, Berkeley, CA, United States). […]
(§2) (1:100, BAF2655, R&D, Minneapolis, MN, USA). […] For the quantification of Aβ plaque-associated microglia and astrocyte, Iba1- and GFAP-immunopositive cells around plaques were counted. On each slide, ten plaques were randomly determined and the microglia (nuclei) in the immediate vicinity (two times the plaque diameter) of each plaque were counted. For colocalization of PSD95 and synaptophysin, images were analyzed with the puncta analyzer plugin with a minimum pixel specification of 4 in Image Jand thresholding was consistent for every image. […]

C3 within astrocytes = experiment: C3 and GFAP co-immunostaining (A1 astrocyte marker); format: in vivo; conditions: AP5-treated vs APP/PS1 mice
Procedure: as §1
The fixed hemibrains were paraffin-embedded and sectioned in the coronal plane. The slices were deparaffinized with xylene and rehydrated by a series of gradient alcohols. Antigen retrieval through microwave boiling was performed with 10 mM sodium citrate solution at pH 6.0. The slices were cooled down to room temperature and then rinsed in PBS solution. […]
as §2
anti-synaptophysin (1:1000, 67864-1-lg, Proteintech) overnight at 4°C. […] Densitometric analysis was performed using Quantity One software (Bio-Rad, Berkeley, CA, USA). […]

[2] = male, C57BL/6J, brain homogenate, po, brain, p.o. 40 mg/kg
[3] = male, C57BL/6J, iv, plasma, i.v. 10 mg/kg
[4] = male, C57BL/6J, plasma, iv, 10 mg/kg, i.v. 10 mg/kg
[5] = male, C57BL/6J, plasma, po, 40 mg/kg, p.o. 40 mg/kg
[6] = male, C57BL/6J, po, plasma, p.o. 40 mg/kg

CCN(C)C(=O)Oc1cccc(/C=C2\Cc3cc(OC)c(OC)cc3C2=O)c1 [AP5, (E)-3-((5,6-dimethoxy-1-oxo-1,3-dihydro-2H-inden-2-ylidene)-methyl)phenylethyl(methyl)carbamate]
B/P (brain-to-plasma distribution ratio, brain penetration) ([1]; AUCINF brain/AUCINF plasma × 100, p.o. 40 mg/kg, 40 mg/kg): 10.23%
Cl ([1]; brain, p.o. 40 mg/kg): 896.2 mL/min/kg
Vss ([1]; brain, p.o. 40 mg/kg): 412.6 L/kg
AUC(0-inf) [1, 2]: 744 ng·h/mL
AUC(0-t) [1, 2]: 706 ng·h/mL
half-life [1, 2]: 5.32 h
AUC(0-inf) [1, 3]: 2700 ng·h/mL
AUC(0-t) [1, 3]: 2600 ng·h/mL
clearance [1, 3]: 125 mL/min/kg
half-life [1, 3]: 3.34 h
Vd ([1]; male, C57BL/6J, iv, plasma, i.v. 10 mg/kg, read-out: Vss): 36.3 L/kg
Tmax ([1]; male, C57BL/6J, brain homogenate, po, 40 mg/kg, brain, p.o. 40 mg/kg): 1.5 h
Cmax ([1]; male, C57BL/6J, brain homogenate, po, 40 mg/kg, p.o. 40 mg/kg): 95.4 ng/mL
Kp ([1]; male, C57BL/6J, brain/plasma, po, 40 mg/kg, AUCINF brain/AUCINF plasma × 100, p.o. 40 mg/kg, read-out: B/P (brain-to-plasma distribution ratio, brain penetration)): > 0.1
Cmax [1, 4]: 5440 ng/mL
Tmax [1, 4]: 0.083 h
Cmax [1, 5]: 2090 ng/mL
Tmax [1, 5]: 2 h
bioavailability ([1]; male, C57BL/6J, plasma, oral, AUCINF p.o./AUCINF i.v./4 × 100, p.o. 40 mg/kg, i.v. 10 mg/kg, read-out: F (oral bioavailability)): 67.2%
AUC(0-inf) [1, 6]: 7260 ng·h/mL
AUC(0-t) [1, 6]: 6990 ng·h/mL
half-life [1, 6]: 4.72 h
Cl ([1]; plasma, p.o. 40 mg/kg): 45.93 mL/min/kg
Vss ([1]; plasma, p.o. 40 mg/kg): 18.79 L/kg
expression levels of APPfl, CTFβ, BACE and presenilin 1 (APPfl, CTFβ, BACE, PS1): no significant changes
C3-positive area within the astrocytes (C3 within astrocytes): markedly reduced
